Results as given in patent US9193731B2, “Antimicrobial compounds and methods of making and using the same” (Melinta Therapeutics, Inc., priority 2009, dated 2015).

The compounds below were run on Escherichia coli strain ATCC25922 (assay: standard microdilution assay to determine minimum inhibitory concentrations (MICs)). Details: Escherichia coli strain ATCC25922, microdilution.
Type: cell-based
How it was run: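 Broth microdilution MIC against E. coli ATCC25922, following CLSI protocols, typically in a 100 microliter final volume. Results reported as +/− relative to a 16 micrograms/ml cutoff.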

Structure (SMILES)	E. coli ATCC25922 MIC
N=C(N)NCCCNCc1ccc(-n2cc3cc(-c4cc(OCCCN)cc(N5CCNCC5)c4)[nH]c3nc2=O)cc1 [Compound 2010a]	+ (a “+” indicates that the compound has an MIC value of 16 micrograms/ml or less)
N=C(N)NCCCNCc1ccc(-n2cc3cc(-c4cc(CCN)cc(OCC(F)CN)c4)[nH]c3nc2=O)cc1 (stereo not drawn) [Compound 2011a]	+ (a “+” indicates that the compound has an MIC value of 16 micrograms/ml or less)
N=C(N)NCCCNCc1ccc(-n2cc3cc(-c4cc(CCNC(N)=O)cc(OCC(F)CN)c4)[nH]c3nc2=O)cc1 (stereo not drawn) [Compound 2012a]	− (a “−” indicates that the compound has an MIC value greater than 16 micrograms/ml)
N=C(N)NCCCNCc1ccc(-n2cc3cc(-c4cc(OCC(F)CN)cc(N5CCOCC5)c4)[nH]c3nc2=O)cc1 (stereo not drawn) [Compound 2013a]	+ (a “+” indicates that the compound has an MIC value of 16 micrograms/ml or less)
N=C(N)NCCCNCc1ccc(-n2cc3cc(-c4cccc(C(NC5CN(C(=N)N)C5)C(F)(F)F)c4)[nH]c3nc2=O)cc1 (stereo not drawn) [Compound 2024a]	+ (a “+” indicates that the compound has an MIC value of 16 micrograms/ml or less)
N=C(N)NCCCNCc1ccc(-n2cc3cc(-c4cccc(C(NCCN)C(F)(F)F)c4)[nH]c3nc2=O)cc1 (stereo not drawn) [Compound 2025a]	+ (a “+” indicates that the compound has an MIC value of 16 micrograms/ml or less)
N=C(N)NCCCNCc1ccc(-n2cc3cc(-c4cc(OCC(F)CN)cc(-c5ccc([N+](=O)[O-])cc5)c4)[nH]c3nc2=O)cc1 (stereo not drawn) [Compound 2027a]	+ (a “+” indicates that the compound has an MIC value of 16 micrograms/ml or less)
N=C(N)NCCCNCc1ccc(-n2cc3cc(-c4cc(OCC(F)CN)cc(-c5cccc(CN)c5)c4)[nH]c3nc2=O)cc1 (stereo not drawn) [Compound 2030a]	+ (a “+” indicates that the compound has an MIC value of 16 micrograms/ml or less)
CS(=O)(=O)NCCc1cc(OCC(F)CN)cc(-c2cc3cn(-c4ccc(CNCCCNC(=N)N)cc4)c(=O)nc3[nH]2)c1 (stereo not drawn) [Compound 2031a]	− (a “−” indicates that the compound has an MIC value greater than 16 micrograms/ml)
CC(=O)NCCc1cc(OCC(F)CN)cc(-c2cc3cn(-c4ccc(CNCCCNC(=N)N)cc4)c(=O)nc3[nH]2)c1 (stereo not drawn) [Compound 2032a]	− (a “−” indicates that the compound has an MIC value greater than 16 micrograms/ml)
CCNCCc1cc(OCC(F)CN)cc(-c2cc3cn(-c4ccc(CNCCCNC(=N)N)cc4)c(=O)nc3[nH]2)c1 (stereo not drawn) [Compound 2033a]	+ (a “+” indicates that the compound has an MIC value of 16 micrograms/ml or less)
COCCOCCc1cc(OCC(F)CN)cc(-c2cc3cn(-c4ccc(CNCCCNC(=N)N)cc4)c(=O)nc3[nH]2)c1 (stereo not drawn) [Compound 2035a]	− (a “−” indicates that the compound has an MIC value greater than 16 micrograms/ml)
COCc1cc(OCC(F)CN)cc(-c2cc3cn(-c4ccc(CNCCCNC(=N)N)cc4)c(=O)nc3[nH]2)c1 (stereo not drawn) [Compound 2036a]	+ (a “+” indicates that the compound has an MIC value of 16 micrograms/ml or less)
CS(=O)(=O)NCc1cc(OCC(F)CN)cc(-c2cc3cn(-c4ccc(CNCCCNC(=N)N)cc4)c(=O)nc3[nH]2)c1 (stereo not drawn) [Compound 2037a]	− (a “−” indicates that the compound has an MIC value greater than 16 micrograms/ml)
CC(CN)CN1CCC(c2cc3cn(-c4ccc(CNCCCNC(=N)N)cc4)c(=O)nc3[nH]2)C1 (stereo not drawn) [Compound 2038a]	+ (a “+” indicates that the compound has an MIC value of 16 micrograms/ml or less)
CC(CN)CN1CCC(c2cc3cn(-c4ccc(CNCCCNC(=N)N)cc4)c(=O)nc3[nH]2)C1 (stereo not drawn) [Compound 2040a]	+ (a “+” indicates that the compound has an MIC value of 16 micrograms/ml or less)
CC(CN)CN1CCC(c2cc3cn(-c4ccc(CNCCCN)cc4)c(=O)nc3[nH]2)C1 (stereo not drawn) [Compound 2041a]	+ (a “+” indicates that the compound has an MIC value of 16 micrograms/ml or less)
CNCCN1CCCC(c2cc3cn(-c4ccc(CNCCCNC(=N)N)cc4)c(=O)nc3[nH]2)C1 (stereo not drawn) [Compound 2042a]	+ (a “+” indicates that the compound has an MIC value of 16 micrograms/ml or less)

Structure (SMILES)	E. coli ATCC25922 MIC
N=C(N)NCCCNCc1ccc(-n2cc3cc(C4CCCN(CCOCCO)C4)[nH]c3nc2=O)cc1 (stereo not drawn) [Compound 2043a]	+ (a “+” indicates that the compound has an MIC value of 16 micrograms/ml or less)
N=C(N)NCCCNCc1ccc(-n2cc3cc(C4CCCN(CCCN5CCOCC5)C4)[nH]c3nc2=O)cc1 (stereo not drawn) [Compound 2044a]	+ (a “+” indicates that the compound has an MIC value of 16 micrograms/ml or less)
N=C(N)NCCCNCc1ccc(-n2cc3cc(-c4cc(C=CCCN)cc(OC(F)(F)F)c4)[nH]c3nc2=O)cc1 [Compound 2045a]	+ (a “+” indicates that the compound has an MIC value of 16 micrograms/ml or less)
N=C(N)NCCCNCc1ccc(-n2cc3cc(-c4cc(CCCCN)cc(SC(F)(F)F)c4)[nH]c3nc2=O)cc1 [Compound 2046a]	+ (a “+” indicates that the compound has an MIC value of 16 micrograms/ml or less)
N=C(N)NCCCNCc1ccc(-n2cc3cc(-c4cc(OC(F)(F)F)cc(SCCCN)c4)[nH]c3nc2=O)cc1 [Compound 2047a]	+ (a “+” indicates that the compound has an MIC value of 16 micrograms/ml or less)
N=C(N)NCCCNC(=O)c1ccc(-n2cc3cc(-c4cc(CCCCN)cc(OC(F)(F)F)c4)[nH]c3nc2=O)cc1 [Compound 2048a]	+ (a “+” indicates that the compound has an MIC value of 16 micrograms/ml or less)
CSCc1cc(OCC(F)CN)cc(-c2cc3cn(-c4ccc(CNCCCNC(=N)N)cc4)c(=O)nc3[nH]2)c1 (stereo not drawn) [Compound 2049a]	+ (a “+” indicates that the compound has an MIC value of 16 micrograms/ml or less)
N=C(N)NCCCNCc1ccc(-n2cc3cc(-c4cc(CO)cc(OCC(F)CN)c4)[nH]c3nc2=O)cc1 (stereo not drawn) [Compound 2050a]	+ (a “+” indicates that the compound has an MIC value of 16 micrograms/ml or less)
N=C(N)NCCCNCc1ccc(-n2cc3cc(-c4cc(CN)cc(OCC(F)CN)c4)[nH]c3nc2=O)cc1 (stereo not drawn) [Compound 2051a]	+ (a “+” indicates that the compound has an MIC value of 16 micrograms/ml or less)
N=C(N)NCCCNCc1ccc(-n2cc3cc(-c4cc(OC(F)(F)F)cc(S(=O)(=O)CCCN)c4)[nH]c3nc2=O)cc1 [Compound 2052a]	+ (a “+” indicates that the compound has an MIC value of 16 micrograms/ml or less)
N=C(N)NCCCNCc1ccc(-n2cc3cc(-c4cc(CCO)cc(CCCCN)c4)[nH]c3nc2=O)cc1 [Compound 2053a]	+ (a “+” indicates that the compound has an MIC value of 16 micrograms/ml or less)
N=C(N)NCCCNCc1ccc(-n2cc3cc(-c4cc(CCCCN)cc([S+]([O-])C(F)(F)F)c4)[nH]c3nc2=O)cc1 (stereo not drawn) [Compound 2054a]	+ (a “+” indicates that the compound has an MIC value of 16 micrograms/ml or less)
N=C(N)NCCCNCc1ccc(-n2cc3cc(-c4cc(CCCCN)cc(S(=O)(=O)C(F)(F)F)c4)[nH]c3nc2=O)cc1 [Compound 2055a]	+ (a “+” indicates that the compound has an MIC value of 16 micrograms/ml or less)
N=C(N)NCCCNCc1ccc(-n2cc3cc(-c4cc(CCCN)cc(OC(F)(F)F)c4)[nH]c3nc2=O)cc1 [Compound 2058a]	+ (a “+” indicates that the compound has an MIC value of 16 micrograms/ml or less)
N=C(N)NCCCNCc1ccc(-n2cc3cc(-c4cc(OC(F)(F)F)cc(S(=O)(=O)NCCN)c4)[nH]c3nc2=O)cc1 [Compound 2059a]	+ (a “+” indicates that the compound has an MIC value of 16 micrograms/ml or less)
N=C(N)NCCCNCc1ccc(-n2cc3cc(-c4cncc(CCCCN)c4)[nH]c3nc2=O)cc1 [Compound 2060a]	+ (a “+” indicates that the compound has an MIC value of 16 micrograms/ml or less)
N=C(N)NCCCNCc1ccc(-n2cc3cc(-c4cc(OC(F)(F)F)cc(C(O)CCN)c4)[nH]c3nc2=O)cc1 (stereo not drawn) [Compound 2061a]	+ (a “+” indicates that the compound has an MIC value of 16 micrograms/ml or less)
N=C(N)NCCCNCc1ccc(-n2cc3cc(-c4cc(CCN)cc(CCCCN)c4)[nH]c3nc2=O)cc1 [Compound 2062a]	+ (a “+” indicates that the compound has an MIC value of 16 micrograms/ml or less)

Same assay, conditions: Escherichia coli, ATCC25922, Escherichia coli strain ATCC25922, microdilution; read-out: E. coli ATCC25922 MIC

Structure (SMILES)	MIC [µg/mL]
N=C(N)NCCCNCc1ccc(-n2cc3cc(-c4cc(CCCCN)cc(OC(F)(F)F)c4)[nH]c3nc2=O)cc1 [Compound 2009a]	< 16
N=C(N)NCCCNCc1ccc(-n2cc3cc(C4CCCN(CCCF)C4)[nH]c3nc2=O)cc1 (stereo not drawn) [Compound 2017a]	< 16
CC(=O)NCCN1CCCC(c2cc3cn(-c4ccc(CNCCCNC(=N)N)cc4)c(=O)nc3[nH]2)C1 (stereo not drawn) [Compound 2018a]	< 16
N=C(N)NCCCNCc1ccc(-n2cc3cc(C4CCCN(CCNC(N)=O)C4)[nH]c3nc2=O)cc1 (stereo not drawn) [Compound 2019a]	< 16
N=C(N)CCCN1CCCC(c2cc3cn(-c4ccc(CNCCCNC(=N)N)cc4)c(=O)nc3[nH]2)C1 (stereo not drawn) [Compound 2020a]	< 16
CC(=O)NCCCN1CCCC(c2cc3cn(-c4ccc(CNCCCNC(=N)N)cc4)c(=O)nc3[nH]2)C1 (stereo not drawn) [Compound 2021a]	> 16
N=C(N)NCCCNCc1ccc(-n2cc3cc(C4CCCN(Cc5ncc[nH]5)C4)[nH]c3nc2=O)cc1 (stereo not drawn) [Compound 2022a]	> 16
N=C(N)NCCCNCc1ccc(-n2cc3cc(C4CCCC(CNCCN)C4)[nH]c3nc2=O)cc1 (stereo not drawn) [Compound 2026a]	< 16
N=C(N)NCCCNCc1ccc(-n2cc3cc(-c4cc(CCCCN)cc(C(F)(F)F)c4)[nH]c3nc2=O)cc1 [Compound 2029a]	< 16
N=C(N)NCCCNC(=O)c1ccc(-n2cc3cc(-c4cc(CCCCN)cc(C(F)(F)F)c4)[nH]c3nc2=O)cc1 [Compound 2034a]	< 16
NCCCc1cccc(-c2cc3cn(-c4ccc(C(N)=O)cc4)c(=O)nc3[nH]2)c1 [Compound 2056a]	> 16
NCCCc1cccc(-c2cc3cn(-c4ccc(CN)cc4)c(=O)nc3[nH]2)c1 [Compound 2057a]	> 16
